Assay results from patent US20090270495A1, “Inhibitors of Phosphodiesterase Types 1 To 5 Based on Dioclein, Floranol, and Analogs Thereof” (priority 2005, published 2009).
“And” between values parts separate entries of the source, which are not always exact repeats. Equal entries are not always repeated. “Also recorded” adds a separate entry of the source. Where two headings read alike, the source gives them in different places.

How the values were obtained:
human saphenous vein = assay: Vasodilating effect on human saphenous vein pre-contracted with phenylephrine; details: for IC50: phenylephrine 3×10^−6M
Description: FIG. 2 represent the vasodilating effect of dioclein in the human saphenous vein, pre-contracted with phenylephrine (3×10^−6M) in the presence or absence of functional endothelium. The relaxation data represent the percentage of reduction of the contraction by phenylephrine in response to dioclein and have been expressed on average±SEM. *P<0.05 (two-way ANOVA with post-test comparison BONFERRONI. The vessels of 8 patients with and 8 without functional endothelium were analyzed.
The data represent the percentage of reduction of the contraction by phenylephrine in response to dioclein and have been expressed average±SEM. *P<0.05. ***P<0.001 (two-way ANOVA with post-test comparison BONFERRONI). One has analyzed 8 vessels of the control group, 5 vessels of the group incubated with H-89.
FIG. 4 illustrates the effect of Rp-8-pCPT cGMPS (10 μM) on the relaxation induced by dioclein on the human saphenous vein without functional endothelium, pre-contracted with phenylephrine (3×10^−6M). The data represent the percentage of reduction of the contraction with phenylephrine in response to dioclein and have been expressed in average±SEM. ***P<0.001 (two-way ANOVA with post-test comparison of BONFERRONI). One has analyzed 8 vessels of the control group and 5 vessels of the group incubated with Rp-8-pCPT cGMPS.
The data represent the percentage of reduction of the contraction with phenylephrine in response to dioclein and have been expressed in average±SEM. One has analyzed 8 vessels of the dioclein group, 7 vessels of the 8-MM-IBMX group and 9 vessels of the vinpocetine group.
FIG. 2 illustrates the effect of the flavonoids of the present invention on the human saphenous vein. […] FIG. 3 illustrates the effect of dioclein on the human saphenous vein without functional endothelium, in the absence and in the presence of an inhibitor selective of protein Kinase A, which is the intracellular receptor of AMPc.

PDE1 [1] = details: cited from earlier work
PDE5 [2] = target: PDE5 (Homo sapiens, UniProt O76074); details: cited from earlier work
PDE1 [3] = system: T1, PDE1; assay: PDE1 inhibition, enzyme isolated from smooth muscle of ox aorta; format: biochemical
T1 construct: IC50 PDE1 − calmodulin; other: without calmodulin; Ki PDE1 − calmodulin; other: with calmodulin; Ki PDE1 + calmodulin; other: versus literature value of 8-MM-IBMX; times more pot

PDE2 = target: T2, PDE2 (Homo sapiens, UniProt O00408); assay: PDE2 inhibition, enzyme isolated from human platelets; format: biochemical
T2 construct: on the PDE2 isolated from human platelets; from tissue; host or cells: human platelets

PDE3 = target: T3, PDE3 (Bos taurus, UniProt A0A3Q1M1E8); assay: PDE3 inhibition, enzyme isolated from smooth muscle of ox aorta; format: biochemical
T3 sequence (A0A3Q1M1E8 1-1126): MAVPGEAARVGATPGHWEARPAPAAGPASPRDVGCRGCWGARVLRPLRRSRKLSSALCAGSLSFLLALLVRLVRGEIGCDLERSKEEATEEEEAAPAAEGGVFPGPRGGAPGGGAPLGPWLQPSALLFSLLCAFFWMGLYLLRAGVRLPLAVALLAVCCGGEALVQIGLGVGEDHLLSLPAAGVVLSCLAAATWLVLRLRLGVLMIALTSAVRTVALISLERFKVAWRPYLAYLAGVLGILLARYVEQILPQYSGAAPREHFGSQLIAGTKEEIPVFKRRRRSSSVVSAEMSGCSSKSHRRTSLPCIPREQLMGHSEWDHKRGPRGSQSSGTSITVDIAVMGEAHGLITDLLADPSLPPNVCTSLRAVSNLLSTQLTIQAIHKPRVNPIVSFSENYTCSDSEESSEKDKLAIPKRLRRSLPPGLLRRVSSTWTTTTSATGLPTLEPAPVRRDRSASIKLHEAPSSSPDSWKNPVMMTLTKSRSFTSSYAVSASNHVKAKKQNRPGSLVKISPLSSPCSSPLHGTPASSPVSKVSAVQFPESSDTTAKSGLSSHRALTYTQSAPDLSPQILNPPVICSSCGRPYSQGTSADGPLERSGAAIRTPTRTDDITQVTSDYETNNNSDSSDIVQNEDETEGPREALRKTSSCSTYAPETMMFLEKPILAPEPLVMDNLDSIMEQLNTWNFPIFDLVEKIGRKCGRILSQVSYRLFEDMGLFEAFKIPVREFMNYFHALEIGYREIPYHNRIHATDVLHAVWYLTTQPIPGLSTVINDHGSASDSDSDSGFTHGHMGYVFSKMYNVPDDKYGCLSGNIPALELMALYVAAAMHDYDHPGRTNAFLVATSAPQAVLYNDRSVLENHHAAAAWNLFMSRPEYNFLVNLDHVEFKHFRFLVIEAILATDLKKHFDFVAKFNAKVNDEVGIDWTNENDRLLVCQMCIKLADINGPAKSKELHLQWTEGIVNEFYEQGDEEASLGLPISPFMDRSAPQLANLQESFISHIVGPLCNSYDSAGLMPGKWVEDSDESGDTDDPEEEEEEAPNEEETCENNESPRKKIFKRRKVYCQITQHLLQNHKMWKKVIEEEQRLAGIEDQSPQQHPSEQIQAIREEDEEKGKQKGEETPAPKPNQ

PDE4 = PDE4 inhibition, enzyme isolated from smooth muscle of ox aorta; format: biochemical
PDE5 [4] = target: T4, PDE5 (Bos taurus, UniProt Q28156); assay: PDE5 inhibition, enzyme isolated from smooth muscle of ox aorta; format: biochemical
T4 construct: isolated from the smooth muscle of ox aorta; from tissue; host or cells: smooth muscle of ox aorta

PDE1 [5] = assay: PDE1 inhibition, enzyme isolated from smooth muscle of ox aorta; format: biochemical; details: PDE1 versus PDE2-PDE5
[6] = system: arterial pressure of mice; assay: Hypotensor effect on arterial pressure of mice; format: in vivo; details: dissolved with DMSO
Description: FIG. 7 is a representative example of the effect of dioclein (2.5 mg/kg) and of the inclusion product of dioclein in cyclodextrin (inclusion: 2.5 mg/kg), applied by intraperitoneal route, on the arterial pressure of mice. In the highlight we can see the average±SEM of the maximum effect achieved on 6 different mice. In these experiments dioclein and the inclusion product of dioclein in the cyclodextrin were dissolved with the aid of DMSO.
FIG. 8 is a representative example of the effect of dioclein (10 mg/kg) and of the inclusion product of dioclein in cyclodextrin (inclusion: 10 mg/kg), applied by oral route, on the arterial pressure of mice. In the highlight one can see the average±SEM of maximum effect achieve in 3 different mice. In this experiments dioclein and the inclusion product of dioclein in cyclodextrin were dissolved with the aid of DMSO.
FIG. 9 is a representative example of the effect of the inclusion product of dioclein in cyclodextrin (inclusion; 10 mg/kg), solubilized in water, applied by oral route, on the arterial pressure of mice.
FIG. 7 illustrates the effect of dioclein and of dioclein included in cyclodextrin, dissolved with the aid of DMSO on the arterial pressure of mice. […] FIG. 8 illustrates the effect of dioclein and of dioclein included in cyclodextrin dissolved with the aid of DMSO on the arterial pressure of mice when applied by oral route (gavage). […]

Solubility = format: physicochemical
PDE1 of bovine tissue = details: cited from earlier work
PDE7 = PDE7 (Homo sapiens, UniProt Q9NP56); details: at the same concentrations (higher than 30 μM); cited from earlier work
[7] = target: potassium channels of the type sensitive to high-conductance calcium (Homo sapiens, UniProt Q12791); details: cited from earlier work
[8] = without functional endothelium, read-out: Cl50 of vasodilating effect, absence of functional endothelium
[9] = without calmodulin, read-out: IC50 PDE1 − calmodulin
[10] = activated, +GMPc, read-out: IC50 Activated PDE2 (+GMPc)
[11] = basal, read-out: IC50 Basal PDE2

T2 sequence (O00408 whole entry): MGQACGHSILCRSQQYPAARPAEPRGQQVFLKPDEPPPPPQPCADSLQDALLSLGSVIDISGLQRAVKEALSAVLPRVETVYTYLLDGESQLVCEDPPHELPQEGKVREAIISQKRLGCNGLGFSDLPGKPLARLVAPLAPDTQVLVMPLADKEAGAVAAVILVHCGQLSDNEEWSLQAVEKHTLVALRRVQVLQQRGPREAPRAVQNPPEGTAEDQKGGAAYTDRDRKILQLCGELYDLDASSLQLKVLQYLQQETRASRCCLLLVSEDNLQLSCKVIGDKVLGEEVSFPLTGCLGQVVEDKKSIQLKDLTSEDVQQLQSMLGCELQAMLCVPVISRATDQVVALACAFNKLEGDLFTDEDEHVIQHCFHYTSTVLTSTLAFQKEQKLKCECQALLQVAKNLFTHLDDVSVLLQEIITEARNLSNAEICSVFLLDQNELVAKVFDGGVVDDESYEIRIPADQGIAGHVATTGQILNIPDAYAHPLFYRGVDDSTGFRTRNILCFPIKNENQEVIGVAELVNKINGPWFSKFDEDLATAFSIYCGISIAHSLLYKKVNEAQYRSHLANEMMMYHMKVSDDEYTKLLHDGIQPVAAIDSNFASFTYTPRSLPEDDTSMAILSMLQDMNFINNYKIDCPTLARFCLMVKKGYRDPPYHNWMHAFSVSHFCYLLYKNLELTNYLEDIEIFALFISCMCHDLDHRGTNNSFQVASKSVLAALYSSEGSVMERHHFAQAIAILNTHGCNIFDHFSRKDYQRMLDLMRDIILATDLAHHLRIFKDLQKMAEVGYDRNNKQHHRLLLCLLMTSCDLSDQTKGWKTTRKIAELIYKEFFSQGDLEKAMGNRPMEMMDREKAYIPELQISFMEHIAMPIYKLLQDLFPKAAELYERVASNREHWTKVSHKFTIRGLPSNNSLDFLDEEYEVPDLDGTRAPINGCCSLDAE
Chain of potassium channels of the type sensitive to high-conductance calcium (Q12791 whole entry): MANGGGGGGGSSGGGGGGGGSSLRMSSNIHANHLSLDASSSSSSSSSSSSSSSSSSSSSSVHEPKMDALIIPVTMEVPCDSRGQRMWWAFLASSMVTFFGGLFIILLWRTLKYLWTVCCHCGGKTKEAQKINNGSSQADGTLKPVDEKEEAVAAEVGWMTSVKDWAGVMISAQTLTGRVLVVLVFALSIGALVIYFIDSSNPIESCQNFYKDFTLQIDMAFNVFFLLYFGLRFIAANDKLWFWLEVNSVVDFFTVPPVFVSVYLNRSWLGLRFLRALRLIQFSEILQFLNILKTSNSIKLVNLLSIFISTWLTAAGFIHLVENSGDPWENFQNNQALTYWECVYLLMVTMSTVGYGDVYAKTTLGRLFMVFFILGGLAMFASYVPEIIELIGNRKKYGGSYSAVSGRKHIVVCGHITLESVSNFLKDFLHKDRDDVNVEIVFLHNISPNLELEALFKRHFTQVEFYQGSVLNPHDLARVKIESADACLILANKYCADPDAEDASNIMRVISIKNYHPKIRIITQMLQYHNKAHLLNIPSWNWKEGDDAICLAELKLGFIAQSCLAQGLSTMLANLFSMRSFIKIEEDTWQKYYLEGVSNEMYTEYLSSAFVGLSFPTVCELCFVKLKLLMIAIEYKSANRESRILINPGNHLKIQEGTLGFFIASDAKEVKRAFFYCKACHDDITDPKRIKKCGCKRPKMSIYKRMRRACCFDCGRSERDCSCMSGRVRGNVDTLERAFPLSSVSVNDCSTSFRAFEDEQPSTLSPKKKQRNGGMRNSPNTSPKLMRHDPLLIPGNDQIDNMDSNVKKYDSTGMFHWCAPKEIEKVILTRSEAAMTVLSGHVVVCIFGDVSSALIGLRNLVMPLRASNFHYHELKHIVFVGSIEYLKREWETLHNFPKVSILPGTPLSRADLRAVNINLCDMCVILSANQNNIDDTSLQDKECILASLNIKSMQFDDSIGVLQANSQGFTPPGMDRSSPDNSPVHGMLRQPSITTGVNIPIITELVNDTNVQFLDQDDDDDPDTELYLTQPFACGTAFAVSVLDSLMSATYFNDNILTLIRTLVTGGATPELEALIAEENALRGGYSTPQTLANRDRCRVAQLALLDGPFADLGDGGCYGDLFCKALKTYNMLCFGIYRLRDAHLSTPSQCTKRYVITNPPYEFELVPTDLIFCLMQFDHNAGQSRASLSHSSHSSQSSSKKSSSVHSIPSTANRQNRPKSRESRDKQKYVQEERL
Chain of PDE7 (Q9NP56 whole entry): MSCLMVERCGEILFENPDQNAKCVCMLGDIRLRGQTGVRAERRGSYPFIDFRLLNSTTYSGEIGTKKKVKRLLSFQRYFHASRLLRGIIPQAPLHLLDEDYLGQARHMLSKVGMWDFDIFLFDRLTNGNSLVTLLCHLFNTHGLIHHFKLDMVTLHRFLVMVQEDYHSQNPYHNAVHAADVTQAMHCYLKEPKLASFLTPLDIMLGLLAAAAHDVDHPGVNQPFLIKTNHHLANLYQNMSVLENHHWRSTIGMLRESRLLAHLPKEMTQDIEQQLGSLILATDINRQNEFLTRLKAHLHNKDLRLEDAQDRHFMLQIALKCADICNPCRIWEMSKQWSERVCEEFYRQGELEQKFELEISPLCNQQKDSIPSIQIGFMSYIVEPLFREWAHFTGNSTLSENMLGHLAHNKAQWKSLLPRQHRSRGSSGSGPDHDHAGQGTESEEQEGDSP

COCc1nc2c([nH]1)c(=O)n(C)c(=O)n2CC(C)C [8-MM-IBMX, 8-methoxymethyl-IBMX]
IC50 (human saphenous vein; [8]): 30.9 ± 16 µM
IC50 (PDE1 [1]): 8 µM
IC50 (PDE5 [2]): 10 µM

COc1c(O)c(CC=C(C)C)c2c(c1O)C(=O)[C@H](O)[C@@H](c1ccccc1O)O2 [Floranol]
IC50 (PDE1 [3]; with calmodulin, read-out: IC50 PDE1 + calmodulin): 3.06 ± 0.14 µM
IC50 (PDE1 [3]; [9]): 2.75 ± 0.2 µM
IC50 (PDE2; [10]): 65.3 ± 6.87 µM
IC50 (PDE2; [11]): 26.8 ± 4.62 µM
IC50 (PDE3): 47.1 ± 5.25 µM
IC50 (PDE4): 11 ± 2.31 µM
IC50 (PDE5 [4]): 7.14 µM

COc1cc2c(c(O)c1OC)C(=O)CC(c1cc(O)ccc1O)O2 (stereo not shown) [Dioclein, 5, 2′,5′-trihydroxy-6,7-dimethoxyflavanone]
selectivity: PDE1 inhibited at concentrations times smaller than for PDE2, PDE3, PDE4 and PDE5 (PDE1 [5]): 20 to 100 times and 20-100 times
IC50 (PDE1 [3]; calmodulin state not stated in text, listed as dioclein, read-out: IC50 of inhibitory effect on PDE1 (running text)): 1.44 ± 0.35 µM
IC50 (PDE1 [3]; calmodulin state not stated in text, read-out: IC50 of inhibitory effect on PDE1 (running text)): 1.4 µM
times more potent than 8-MM-IBMX (PDE1) (PDE1 [3]; versus literature value of 8-MM-IBMX): 8 times
times more potent than vinpocetine (PDE1) (PDE1 [3]; versus literature value of vinpocetine): about 30 times
Ki (PDE1 [3]; with calmodulin): 0.59 µM
Ki (PDE1 [3]; without calmodulin): 0.62 µM
IC50 (PDE1 [3]; [9]): 2.47 ± 0.26 µM
IC50 (PDE2; [10]): 38.2 ± 8.92 µM
IC50 (PDE2; [11]): 100 ± 0.5 µM
IC50 (PDE4): 16.8 ± 1.42 µM
IC50 (PDE5 [4]): 23 ± 5.5 µM
IC50 (human saphenous vein; Homo sapiens, with functional endothelium, read-out: Cl50 of vasodilating effect, presence of functional endothelium): 3 ± 0.2 µM
IC50 (human saphenous vein; Homo sapiens, without functional endothelium, read-out: Cl50 of vasodilating effect, absence of functional endothelium): 11 ± 0.4 µM
vasodilating effect in the presence of H-89 (protein kinase A inhibitor) (human saphenous vein; without functional endothelium, H-89 1 μM): displaced to the right
IC50 (human saphenous vein; [8]): 11.1 ± 2.7 µM
effect on arterial pressure, intraperitoneal route ([6]; 2.5 mg/kg i.p.): reduced the arterial pressure of mice
effect on arterial pressure, oral route (gavage), DMSO ([6]; 10 mg/kg oral): not active via oral route
solubility in DMSO and methanol (Solubility; DMSO, methanol): soluble in DMSO and methanol
solubility in water (Solubility; water): insolubility in water; also recorded: low solubility in water; also recorded: very low solubility in water

CCOC(=O)C1=C[C@]2(CC)CCCN3CCc4c(n1c1ccccc41)[C@@H]32 [Vinpocetine]
maximum vasodilating effect (human saphenous vein; without functional endothelium): 30%
concentrations showing inhibitory effect on PDE1 (PDE1 of bovine tissue): higher than 30 μM
PDE7 inhibition (PDE7): inhibits PDE7
direct activation of potassium channels [7]: capable of directly activating potassium channels
